Results on three compounds are retold here after patent publication US20220000875A1, “TOPICAL COMPOSITIONS COMPRISING PENTOXIFYLLINE AND METHODS OF TREATMENT USING THE SAME” (priority 2018, published 2022).

The test system of data set [1] is oral ulcers of BD patients. Put plainly: Randomized, open-label, proof-of-concept clinical study of topical PTX muco-adherent gel: oral ulcer healing, ulcer number, pain. It counts as in vivo, human. As for the experimental part:
(§1) A randomized, open-label, proof-of-concept clinical study was conducted under an FDA Investigational New Drug Application (IND). […] The CLC was administered orally as a pill and dosed as determined by the subject's physician. No less than every 48 hours, subjects' ulcers were photographed and examined using digital image processing to determine ulcer area, over a period of 14 days, which include daily collection of adverse events, ulcer number, and pain scores.
(§2) Inclusion criteria required the recent (<2 days) appearance of a new oral ulcer. Patients on immunosuppressant therapies were excluded from the study.
Patients were contacted daily for 14 consecutive days and were examined in-person no less than every 48 hours except for weekends. On the first day of entry into the study, the largest ulcer was identified and photographed as the “index ulcer”; its location was recorded and it was subsequently photographed at every in-person visit. Photographs were made with a paper ruler showing millimeter graduations lain in the same plane as the ulcer itself. Graphical processing software was used to compute the ulcer area in square millimeters; this software was calibrated from the paper ruler image and required drawing a line around the image of the ulcer margin.
Then, the proportion of patients with undetectable index ulcer (defined as those with an ulcer area of less than 1 mm^2) at day 4 was compared. Lastly, the trend in mean ulcer area over 14 days was compared as well as the results' sensitivity to outliers.
The total number of oral ulcers were also counted at each in-person visit, and the daily average number of oral ulcers were calculated during the treatment period.
The average day zero pain score for each treatment group was normalized to 100%. Then for each treatment group averages were plotted for succeeding days as a percentage of the first day's pain score average.

A short description of data set [2]: Adverse events in the randomized, open-label clinical study. As to conditions: adverse event. As for the experimental part:
as §1, §2
All adverse events were reviewed in real time by the treating physician investigator.

The conditions of data set [3]: cited from earlier work.
Setting [4] is: day 2 of treatment, PTX+CLC n = 18, CLC n = 21.
Where [5] appears, read: interpreted as dermal manifestations of BD.

For the compound `COc1cc2c(c(OC)c1OC)-c1ccc(OC)c(=O)cc1[C@@H](NC(C)=O)CC2` [CLC, colchicine], in data set [1] (setting [4]), the “Day 2 Growth/Shrinkage - Patients with Index Ulcer Growth, %” value turned out to be 80%; the “Day 2 Growth/Shrinkage - Patients with Index Ulcer Growth, Number” value is 16; the “Day 2 Growth/Shrinkage - Patients with Index Ulcer Shrinkage, %” value stood at 19%; the “Day 2 Growth/Shrinkage - Patients with Index Ulcer Shrinkage, Number” value came to 4. Besides, the “Day 4 Clearance - Patients with Remaining Ulcers, %” value in data set [1] (day 4, PTX+CLC n = 18, CLC n = 21) is 71%. Besides, in data set [1] (day 4, undetectable = ulcer area of less than 1 mm^2, PTX+CLC n = 18, CLC n = 21), the “Day 4 Clearance - Patients with Undetectable Ulcers, %” value was determined as 29%. Further, the “mean index ulcer area by treatment group (trend)” value in data set [1] (over 14 days, FIG. 1) was “first growing then slowly decreasing”. Besides, the “daily average number of oral ulcers during the treatment phase” value in data set [1] (two weeks of treatment) is recorded as 1.89+/−1.36. Besides, in data set [2], the “Dysgeusia, % of patients” value was 0%; the “Dysgeusia, number of patients” value is reported as 0; the “Nausea, % of patients” value turned out to be 10%; the “Nausea, number of patients” value was 2. Besides, the “Vomiting, number of patients” value in data set [2] is given as “none”. Moreover, in data set [2] (setting [5]), the “limited dermal rashes, % of patients” value is on record as 29% and the “limited dermal rashes, number of patients” value is given as 6.
With `CC(O)CCCCn1c(=O)c2c(ncn2C)n(C)c1=O` (centres unmarked) [Metabolite 1, 1-[5-hydroxyhexyl]-3,7-dimethylxanthine], the “plasma levels of metabolite relative to PTX” value in data set [3] is “five”.
On to `Cn1cnc2c1c(=O)n(CCCC(=O)O)c(=O)n2C` [Metabolite V, 1-[3-carboxypropyl]-3,7-dimethylxanthine], for which the “plasma levels of metabolite relative to PTX” value in data set [3] is given as “eight”.
